The text below walks through data of ChEMBL document CHEMBL1130374, “Resolution and biological activities of optical isomers of 1,4-diethyl-3,6-epidithiopiperazine-2,5-dione” (1997).

The target of assay [1] is Creatine kinase M-type (Oryctolagus cuniculus) (UniProt P00563). Put plainly: Compound was evaluated for interaction with the creatine kinase in rabbit muscle after 6 hr. Set-up: reference not given here.
The species entered for assay [2] is Mus musculus. The assay can be described thus: Compound was evaluated for macrophage adherence in thioglycolate induced mouse macrophages. Type of assay: functional. As to conditions: read-out: ED50 (the source's name).
A further assay relates to P815. The assay can be described thus: Compound was evaluated for Thymidine incorporation in P815 cell lines. It is filed as functional. As to conditions: Mus musculus, read-out: ED50 (the source's name).
For assay [3], the species on record is Mus musculus. The assay can be described thus: The extent of apoptosis was determined by evaluating the subdiploid population of propidium iodide stained cells using flow cytometry after 9 hr using thymocytes from mice. It is filed as functional, Thymocyte. On the technique in general: Flow cytometry measures light scatter and fluorescence of single cells or particles in a stream.

Sequence of Creatine kinase M-type (Oryctolagus cuniculus) (P00563 whole entry, looked up): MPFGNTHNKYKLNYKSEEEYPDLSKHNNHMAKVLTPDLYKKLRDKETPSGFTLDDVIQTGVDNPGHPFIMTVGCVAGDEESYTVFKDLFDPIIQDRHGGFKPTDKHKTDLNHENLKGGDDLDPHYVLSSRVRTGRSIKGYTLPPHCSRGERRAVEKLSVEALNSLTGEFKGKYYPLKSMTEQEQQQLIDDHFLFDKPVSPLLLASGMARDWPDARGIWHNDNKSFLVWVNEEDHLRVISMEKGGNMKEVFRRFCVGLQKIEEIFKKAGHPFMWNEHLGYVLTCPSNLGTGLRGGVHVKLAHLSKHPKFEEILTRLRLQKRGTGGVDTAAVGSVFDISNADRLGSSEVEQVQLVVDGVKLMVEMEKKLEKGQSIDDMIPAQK

As for `CCN1C(=O)[C@H]2SS[C@@H]1C(=O)N2CC`, the Activity in assay [1] came to 34%; in the assay filed under Mus musculus [3] it was 53%. For the same compound, the EC50 amounted to 5 µM in the assay filed under Mus musculus [2] and 50 µM in the assay on P815.

Take `CCN1C(=O)[C@@H]2SS[C@H]1C(=O)N2CC`: the figures for the Activity (in assay [1]; in the assay listed under Mus musculus [3]) were 34% and 57%, respectively. Further, the EC50 in the assay filed under Mus musculus [2] stood at 8 µM; in the assay on P815 it was 55 µM.

As to `CCN1C(=O)C2SSC1C(=O)N2CC` (racemic), the Activity was found to be 35% in assay [1] and 54% in the assay listed under Mus musculus [3]. For the same compound, the EC50 in the assay listed under Mus musculus [2] is 2.5 µM; in the assay on P815 it was 35 µM.

As to `CN1C(=O)[C@]23CC4=CC=C[C@H](O)[C@H]4N2C(=O)[C@@]1(CO)SS3` [GLIOTOXIN], the Activity is 32% in assay [1] and 59% in the assay filed under Mus musculus [3]. Besides, the EC50 in the assay filed under Mus musculus [2] was 0.35 µM; with P815, 2 µM.
